Tested on: NRK
Experiment: Cellular uptake in rat NRK cells assessed as [14C]inostamycin level after 2 hrs
Assay type: ADME, cell-based

CCC[C@H](O)[C@@]1(CC)C[C@@H](C)[C@](O)([C@]2(C)C[C@H](C)[C@@H]([C@@H](CC)C(=O)[C@@H](C)[C@@H](O)[C@H](C)[C@H]3O[C@@](O)([C@H](CC)C(=O)O)[C@@H](C)[C@H](O)[C@H]3CC)O2)O1 [INOSTAMYCIN]
Activity: Dose-dependent effect
